# In patent publication US20090054493A1, “THIAZOLE DERIVATIVES AS PPAR DELTA LIGANDS AND THEIR MANUFACTURING PROCESS” (priority 2005, published 2009):
# Key:
# Type in all cases: cell-based
# [1] = biological target: T1, PPARα (Homo sapiens, UniProt Q07869); assay: Transfection assay (luciferase reporter) in CV-1 cells, PPARα; details: full-length PPAR plasmid, luciferase normalized with β-galactosidase
# T1 construct: full-length PPARs plasmid DNA; expressed in transfected cells; host or cells: CV-1 cells
# T1 sequence (Q07869 1-468): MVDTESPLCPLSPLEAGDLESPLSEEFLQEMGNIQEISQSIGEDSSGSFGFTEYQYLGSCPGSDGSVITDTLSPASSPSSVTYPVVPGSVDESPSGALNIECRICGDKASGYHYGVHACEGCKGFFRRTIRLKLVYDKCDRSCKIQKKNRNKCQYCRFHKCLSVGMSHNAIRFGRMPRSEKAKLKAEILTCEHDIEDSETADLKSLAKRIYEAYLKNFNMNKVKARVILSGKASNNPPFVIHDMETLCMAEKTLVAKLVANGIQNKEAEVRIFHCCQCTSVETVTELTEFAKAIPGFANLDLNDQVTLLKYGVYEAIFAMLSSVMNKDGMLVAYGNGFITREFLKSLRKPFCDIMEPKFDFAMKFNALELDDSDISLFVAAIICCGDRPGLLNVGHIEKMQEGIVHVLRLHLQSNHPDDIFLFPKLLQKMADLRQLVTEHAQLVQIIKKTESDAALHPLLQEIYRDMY
# Protocol: (§1) The compounds prepared in Examples were tested for PPARδ activity by a transfection assay. In addition, the compounds were tested for selectivity for PPARα and PPARγ, the subtypes of PPARs, and also tested for toxicity by a MTT assay.
# (§2) A transfection assay was performed using CV-1 cells. The culture of the cells was performed using a DMEM medium (10% FBS, DBS (delipidated) and 1% penicillin/streptomycin) on a 96-well plate in a 5% carbon dioxide-containing incubator at 37° C. The test was performed in four steps consisting of cell inoculation, transfection, treatment of the compounds, and analysis of results. Specifically, CV-1 cells were inoculated onto a 96-well plate at a concentration of 5,000 cells/well, and after 24 hours, the cells were transfected. In the cell transfection, full-length PPARs plasmid DNA, reporter DNA that has luciferase activity and thus allows the identification of PPARs, and β-galactosidase DNA that provides the information of transfection efficiency, were used as transfection reagents. Each of the compounds developed in the present invention was dissolved in dimethylsulfoxide (DMSO) and transfected into the cells at various concentrations using media. The cells were cultured in an incubator for 24 and then lysed with lysis buffer. The lysed cells were measured for luciferase and β-galactosidase activities using a luminometer and a microplate reader. The measured luciferase values were normalized with the β-galactosidase values and graphed. From the graph, EC50 values were determined.
# [2] = MTT assay, cytotoxicity; details: African green monkey, CV-1 cells, read-out: LC50 Cytotoxicity
# Protocol: The compounds of Examples 47-97 according to the present invention were tested for cytotoxicity using a MTT assay. MTT is a water-soluble yellow substance, but if it is introduced into living cells, it will be degenerated into a water-insoluble purple crystal due to dehydrogenase contained in mitochondria. If this substance is dissolved in dimethylsulfoxide and then measured for absorbance at 550 nm, cytotoxicity can be assayed. The test method is as follows.
# CV-1 cells were first inoculated onto a 96-well plate at a concentration of 5,000 cells/well. The inoculated cells were cultured in a 5% carbon dioxide-containing humidified incubator at 37° C. for 24 hours, and then treated with the inventive compounds at various concentrations. After 24 hours of culture, a MTT reagent was added to the cultured cells. After 15 minutes of culture, the resulting purple crystal was dissolved in dimethylsulfoxide and then measured for absorbance using a microplate reader. From the measured absorbance, cytotoxicity was assayed.
# [3] = biological target: T2, PPARγ (Homo sapiens, UniProt P37231); assay: Transfection assay (luciferase reporter) in CV-1 cells, PPARγ; details: full-length PPAR plasmid, luciferase normalized with β-galactosidase
# T2 construct: full-length PPARs plasmid DNA; expressed in transfected cells; host or cells: CV-1 cells
# T2 sequence (P37231 1-505): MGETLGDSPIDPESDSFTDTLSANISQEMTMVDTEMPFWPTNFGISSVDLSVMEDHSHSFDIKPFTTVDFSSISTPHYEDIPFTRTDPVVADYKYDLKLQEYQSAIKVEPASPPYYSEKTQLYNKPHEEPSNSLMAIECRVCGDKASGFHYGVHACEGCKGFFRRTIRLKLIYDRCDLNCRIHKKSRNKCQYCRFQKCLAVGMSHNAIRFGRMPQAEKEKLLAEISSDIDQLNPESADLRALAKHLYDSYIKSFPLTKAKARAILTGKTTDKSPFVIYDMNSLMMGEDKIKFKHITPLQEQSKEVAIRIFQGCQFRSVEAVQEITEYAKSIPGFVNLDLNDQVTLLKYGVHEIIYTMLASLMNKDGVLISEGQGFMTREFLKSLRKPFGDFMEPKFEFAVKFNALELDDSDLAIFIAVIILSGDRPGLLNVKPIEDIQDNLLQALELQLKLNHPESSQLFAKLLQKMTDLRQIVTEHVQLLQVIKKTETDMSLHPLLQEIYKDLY
# Protocol: as §1
# as §2, with “The test was performed in four steps consisting of cell inoculation, transfection, treatment of the compounds, and analysis of results.” left out
# [4] = biological target: T3, PPARδ (Homo sapiens, UniProt Q03181); assay: Transfection assay (luciferase reporter) in CV-1 cells, PPARδ; set-up: full-length PPARs plasmid DNA; expressed in transfected cells; host or cells: CV-1 cells; details: full-length PPAR plasmid, luciferase normalized with β-galactosidase
# T3 sequence (Q03181 1-441): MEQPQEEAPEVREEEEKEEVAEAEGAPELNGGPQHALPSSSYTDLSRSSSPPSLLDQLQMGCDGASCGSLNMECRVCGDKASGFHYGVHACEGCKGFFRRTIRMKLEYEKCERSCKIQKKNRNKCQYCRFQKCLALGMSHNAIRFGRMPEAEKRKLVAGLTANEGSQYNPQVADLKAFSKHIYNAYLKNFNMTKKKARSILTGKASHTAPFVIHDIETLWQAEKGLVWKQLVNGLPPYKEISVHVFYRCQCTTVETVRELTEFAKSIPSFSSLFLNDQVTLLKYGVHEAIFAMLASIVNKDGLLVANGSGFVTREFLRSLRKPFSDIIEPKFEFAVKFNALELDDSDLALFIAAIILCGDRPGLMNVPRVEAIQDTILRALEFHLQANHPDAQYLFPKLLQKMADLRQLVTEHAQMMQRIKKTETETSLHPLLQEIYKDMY
# Protocol: as §1
# as §2, with “The test was performed in four steps consisting of cell inoculation, transfection, treatment of the compounds, and analysis of results.” left out
SMILES,EC50 [1],CC50 at 24 h [2],EC50 [3],EC50 [4],EC50 PPARα [1],EC50 PPARγ [3]
"Cc1cc(SC(Cc2c(F)cccc2F)c2sc(-c3ccc(C(F)(F)F)cc3)nc2C)ccc1OCC(=O)O (centres unmarked) [Example 83, 2-[4-[1-[2-[4-(trifluoromethyl)phenyl]-4-methylthiazol-5-yl]-2-(2,6-difluorophenyl)ethylthio]-2-methylphenoxy]acetic acid]",> 100000 nM,> 100000 nM,> 10000 nM,2.6 nM,–,–
"Cc1cc(SC(Cc2c(Cl)cccc2Cl)c2sc(-c3ccc(C(F)(F)F)cc3)nc2C)ccc1OCC(=O)O (centres unmarked) [Example 84, 2-[4-[2-(2,6-dichlorophenyl)-1-[2-[4-(trifluoromethyl)phenyl]-4-methylthiazol-5-yl]ethylthio]-2-methylphenoxy]acetic acid]",–,> 100000 nM,–,2.1 nM,ia,ia
"Cc1cc(SC(Cc2ccc(F)cc2F)c2sc(-c3ccc(C(F)(F)F)cc3)nc2C)ccc1OCC(=O)O (centres unmarked) [Example 85, 2-[4-[1-[2-[4-(trifluoromethyl)phenyl]-4-methylthiazol-5-yl]-2-(2,4-difluorophenyl)ethylthio]-2-methylphenoxy]acetic acid]",–,> 100000 nM,–,3.4 nM,ia,ia
"Cc1cc(SC(Cc2cc(F)ccc2Cl)c2sc(-c3ccc(C(F)(F)F)cc3)nc2C)ccc1OCC(=O)O (centres unmarked) [Example 86, 2-[4-[2-(2-chloro-5-fluorophenyl)-1-[2-[4-(trifluoromethyl)phenyl]-4-methylthiazol-5-yl]ethylthio]-2-methylphenoxy]acetic acid]",–,> 100000 nM,–,8.7 nM,ia,ia
"Cc1cc(SC(Cc2c(F)cccc2Cl)c2sc(-c3ccc(C(F)(F)F)c(F)c3)nc2C)ccc1OCC(=O)O (centres unmarked) [Example 91, 2-[4-[2-(2-chloro-6-fluorophenyl)-1-[2-[3-fluoro-4-(trifluoromethyl)phenyl]-4-methylthiazol-5-yl]ethylthio]-2-methylphenoxy]acetic acid]",–,> 10000 nM,–,3.9 nM,ia,ia
"Cc1cc(SC(Cc2cc(F)c(F)c(F)c2)c2sc(-c3ccc(C(F)(F)F)c(F)c3)nc2C)ccc1OCC(=O)O (centres unmarked) [Example 92, 2-[4-[1-[2-[3-fluoro-4-(trifluoromethyl)phenyl]-4-methylthiazol-5-yl]-2-(3,4,5-trifluorophenyl)ethylthio]-2-methylphenoxy]acetic acid]",–,> 30000 nM,–,21.6 nM,ia,ia
"Cc1cc(SC(Cc2c(F)cccc2C(F)(F)F)c2sc(-c3ccc(C(F)(F)F)c(F)c3)nc2C)ccc1OCC(=O)O (centres unmarked) [Example 93, 2-[4-[1-[2-[3-fluoro-4-(trifluoromethyl)phenyl]-4-methylthiazol-5-yl]-2-(2-fluoro-6-(trifluoromethyl)phenyl)ethylthio]-2-methylphenoxy]acetic acid]",–,> 10000 nM,–,2.6 nM,ia,ia
"Cc1cc(SC(Cc2c(F)cccc2F)c2sc(-c3ccc(C(F)(F)F)c(F)c3)nc2C)ccc1OCC(=O)O (centres unmarked) [Example 94, 2-[4-[1-[2-[3-fluoro-4-(trifluoromethyl)phenyl]-4-methylthiazol-5-yl]-2-(2,6-difluorophenyl)ethylthio]-2-methylphenoxy]acetic acid]",–,> 10000 nM,–,0.9 nM,ia,ia
"Cc1cc(SC(Cc2c(Cl)cccc2Cl)c2sc(-c3ccc(C(F)(F)F)c(F)c3)nc2C)ccc1OCC(=O)O (centres unmarked) [Example 95, 2-[4-[2-(2,6-dichlorophenyl)-1-[2-[3-fluoro-4-(trifluoromethyl)phenyl]-4-methylthiazol-5-yl]ethylthio]-2-methylphenoxy]acetic acid]",–,> 10000 nM,–,2.3 nM,ia,ia
"Cc1cc(SC(Cc2ccc(F)cc2F)c2sc(-c3ccc(C(F)(F)F)c(F)c3)nc2C)ccc1OCC(=O)O (centres unmarked) [Example 96, 2-[4-[1-[2-[3-fluoro-4-(trifluoromethyl)phenyl]-4-methylthiazol-5-yl]-2-(2,4-difluorophenyl)ethylthio]-2-methylphenoxy]acetic acid]",> 10000 nM,> 10000 nM,–,4.8 nM,–,ia
"Cc1cc(SC(Cc2cc(F)ccc2Cl)c2sc(-c3ccc(C(F)(F)F)c(F)c3)nc2C)ccc1OCC(=O)O (centres unmarked) [Example 97, 2-[4-[2-(2-chloro-5-fluorophenyl)-1-[2-[3-fluoro-4-(trifluoromethyl)phenyl]-4-methylthiazol-5-yl]ethylthio]-2-methylphenoxy]acetic acid]",–,> 30000 nM,–,17.4 nM,ia,ia
